Reference: patent US11117888B2, “Irreversible inhibitors of pyruvate kinase M2 and the use thereof” (China Medical University, priority 2020, dated 2021)

Assays:
[1] = test system: H460 lung cancer cells; test: MTT cell viability assay, H460; assay type: cell-based; conditions: Homo sapiens, NCI-H460, H460 (wild type EGFR), 24 hours
Excerpt: (§1) Cell lines, cell culture, biochemical reagents, and antibodies. MiaPaCa-2, AsPC-1, and Panc-1 human pancreatic cancer cells, MCF-7 and MDA-MB-231 breast cancer cells, SCC4 and SCC2059 oral cancer cells, PC-3 and LNCaP prostate cancer cells, H157, H460, H1975, PC-9 and H1650 lung cancer cells were obtained from the American Type Culture Collection (ATCC, Manassas, Va.). All these cells were maintained in recommended growth medium (RPMI 1640 or DMEM) supplemented with 10% fetal bovine serum (FBS) (Invitrogen, Carlsbad, Calif., USA) and antibiotics at 37° C. in a humidified incubator containing 5% CO2. For SILAC experiments, PC-9 cells were grown in SILAC DMEM medium (Thermo Fisher) supplemented with 10% dialyzed FBS and 100 μg/mL each of unlabeled L-arginine and L-lysine (light medium) or ^13C/^15N stable isotope-labeled L-arginine and L-lysine (heavy medium). […]
(§2) Cell viability assays. Drug effects on cell viability was assessed by 3-(4,5-dimethylthiazol-2-yl)-2,5-diphenyltetrazolium bromide ([…]) assays. […] The medium was then removed from each well and replaced with DMSO to dissolve the reduced MTT dye for subsequent colorimetric measurement of absorbance at 560 nm. Cell viabilities are expressed as percentages of viable cells relative to the corresponding vehicle-treated control group.

[2] = target: T1, PKM2 (Homo sapiens, UniProt P14618); test: Gel-based ABPP competition for PKM2 binding in PC-9 cells; parameters: PC-9 cells were pre-incubated with 1 μM compound 1 for 1 hour, and treated with compound 2; endogenous in cells; host or cells: PC-9 cells; conditions: 1 μM compound 1, 1 hour, Western blot
T1 sequence (P14618 whole entry): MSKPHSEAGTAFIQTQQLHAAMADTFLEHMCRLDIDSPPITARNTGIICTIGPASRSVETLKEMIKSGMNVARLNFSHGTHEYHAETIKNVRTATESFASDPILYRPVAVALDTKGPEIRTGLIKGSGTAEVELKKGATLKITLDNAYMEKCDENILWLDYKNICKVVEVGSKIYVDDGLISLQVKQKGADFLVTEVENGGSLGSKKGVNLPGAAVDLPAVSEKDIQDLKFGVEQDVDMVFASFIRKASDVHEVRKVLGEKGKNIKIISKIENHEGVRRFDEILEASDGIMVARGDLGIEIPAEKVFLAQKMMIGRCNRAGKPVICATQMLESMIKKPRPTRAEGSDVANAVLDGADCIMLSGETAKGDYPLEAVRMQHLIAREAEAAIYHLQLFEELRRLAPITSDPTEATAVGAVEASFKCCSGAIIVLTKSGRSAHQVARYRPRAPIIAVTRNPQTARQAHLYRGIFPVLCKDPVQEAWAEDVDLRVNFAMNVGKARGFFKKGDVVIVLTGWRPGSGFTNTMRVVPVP
Protocol: (§3) As this cell-based kinase assay could not rule out the involvement of PKM1, we examined the abilities of compound 1 to inhibit the kinase activity of recombinant PKM2 (SAE0021, Sigma-Aldrich) versus recombinant PKM1 (SRP0415, Sigma-Aldrich) using a commercial PKM assay kit. […] In brief, PC-9 cells were exposed to different concentrations of compound 2 in the presence of compound 1 (1 μM) for 1 hour, lysed, and the cell lysates were treated with biotin-azide, followed by streptavidin bead pulldown under the aforementioned conditions. […] The antigen of compound 1 was prepared by coupling this small molecule with cysteine residues of ovalbumin, which was then used for immunization in guinea pigs.
Gel-based ABPP. PC-9 cells (2×10^6) were seeded in DMEM growth medium in 10-cm plates. After overnight incubation, the growth medium was replaced with fresh medium, followed by the addition of 1 μM compound 1 or DMSO control. After 1 hour, the ABPP probe compound 2 at 0.5, 1 and 2 μM was then added, and incubated at 37° C. for an additional 1 hour. The cell lysates were subjected to copper-catalyzed Click reaction, and biotin-tagged proteins were treated with 50 μL of streptavidin-coupled magnetic beads for 16 hours at 4° C. After incubation, cell lysates were washed by PBS containing 0.5% SDS three times to remove nonspecific binding. […]

[3] = test system: H1650 lung cancer cells; test: MTT cell viability assay, H1650; assay type: cell-based; conditions: Homo sapiens, NCI-H1650, H1650 (mutant EGFR), 24 hours
Excerpt: as §1, §2

[4] = test system: MCF-7 breast cancer cells; test: MTT cell viability assay, MCF-7; assay type: cell-based; conditions: Homo sapiens, MCF7; MCF-7, MTT, 24 hours
Excerpt: as §1, §2

[5] = Incubation with free cysteine, mass spectral analysis; assay type: physicochemical; conditions: stoichiometric amount of free cysteine in solution
Excerpt: In an effort to develop irreversible kinase inhibitors, we chose the core structures of several published kinase inhibitors to couple with a propiolyl moiety, which could act as an electrophilic warhead to irreversibly modify the cysteine residues of target proteins.

[6] = test system: PKM2, EGFR, Stat3, β-catenin in PC-9 cells; test: Immunoblot analysis of oncogenic effectors in PC-9 cells; assay type: cell-based, human; conditions: Western blot, 24 hours
Protocol: Immunoblot analysis. PC-9 cells were seeded into 6 cm dish at a concentration of 5×10^5 cells/mL. After 24 hours, cells were treated with 0-1 μM compound 1 or DMSO alone for 24 hours. The cells were harvested at 24 hours, and protein extractions were carried out. The protein lysate was subjected to 10% SDS-PAGE and transferred to a nitrocellulose membrane (GE Healthcare Life Sciences). Protein expression was analyzed by Western blotting using primary antibodies against PKM2, EGFR, p-STAT3, STAT3, p-β-catenin (Cell Signaling Technology), β-catenin (Santa Cruz Biotechnology) and β-actin (Sigma-Aldrich), followed by incubation with horseradish peroxidase-conjugated secondary (Jackson ImmunoResearch Laboratories). Specific proteins were detected by chemiluminescence using ECL Plus Western Blotting Detection Reagents (GE Healthcare Biosciences).

[7] = test system: H157 lung cancer cells; test: MTT cell viability assay, H157; assay type: cell-based; conditions: Homo sapiens, NCI-H157, H157 (wild type EGFR), 24 hours
Excerpt: as §1, §2

[8] = target: T1, PKM2; test: Recombinant PKM2 kinase activity assay; assay type: biochemical; parameters: purchased Sigma-Aldrich SAE0021; conditions: after 20 min of exposure
Protocol: as §3
(§4) Pyruvate kinase activity assays. PC-9 cells were seeded into 6 cm dishes at a concentration of 5×10^5 cells/mL. After 24 hours, cells were treated with 0.25 μM compound 1 or DMSO for 6 hours. The pyruvate kinase activity of compound 1-treated PC-9 and vehicle control cells was measured by using a commercial colorimetric assay kit from BioVision (Milpitas, Calif., USA) according to the manufacturer's protocol. In addition, to verify the specificity of compound 1 toward PKM2 versus PKM1, the inhibition of the kinase activity of recombinant PKM1 (SRP0415, Sigma-Aldrich) and recombinant PKM2 (SAE0021, Sigma-Aldrich) by compound 1 was conducted using the aforementioned assay kit.

[9] = target: T2, recombinant PKM1 (Homo sapiens, UniProt P14618); test: Recombinant PKM1 kinase activity assay; assay type: biochemical; conditions: after 20 min of exposure
T2 construct: purchased Sigma-Aldrich SRP0415
T2 sequence (P14618 1-531 isoform P14618-2): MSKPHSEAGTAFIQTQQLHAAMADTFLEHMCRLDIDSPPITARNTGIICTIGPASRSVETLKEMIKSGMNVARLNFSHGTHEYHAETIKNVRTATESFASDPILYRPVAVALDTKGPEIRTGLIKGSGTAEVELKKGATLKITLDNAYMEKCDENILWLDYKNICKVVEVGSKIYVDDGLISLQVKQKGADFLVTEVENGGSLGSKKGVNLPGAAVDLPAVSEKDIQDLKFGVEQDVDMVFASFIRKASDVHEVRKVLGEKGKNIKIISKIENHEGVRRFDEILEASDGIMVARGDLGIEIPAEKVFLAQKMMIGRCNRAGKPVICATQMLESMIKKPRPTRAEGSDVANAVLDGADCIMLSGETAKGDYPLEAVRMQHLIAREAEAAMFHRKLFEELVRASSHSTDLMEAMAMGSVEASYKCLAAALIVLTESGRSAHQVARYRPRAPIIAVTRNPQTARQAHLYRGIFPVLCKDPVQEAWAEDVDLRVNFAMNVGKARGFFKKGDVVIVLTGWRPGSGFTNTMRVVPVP
Protocol: as §3, §4

C#CC(=O)Nc1ccc(-n2nc(CCC(=O)NC)cc2-c2ccc(-c3ccc(C(F)(F)F)cc3)cc2)cc1 [compound 1, N-(4-(3-(3-(Methylamino)-3-oxopropyl)-5-(4′-(trifluoromethyl)-[1,1′-biphenyl]-4-yl)-1H-pyrazol-1-yl)phenyl)propiolamide]
IC50 [1]: 1.5 µM
competition with ABPP probe compound 2 for PKM2 binding [2]: binding of the ABPP probe to PKM2 was attenuated
IC50 [3]: 0.2 µM
IC50 [4]: 1 µM
adduct formation with free cysteine [5]: formation of a covalent 1-cysteine adduct
expression and/or phosphorylation of PKM2, EGFR, Stat3, β-catenin [6]: downregulated the expression of PKM2 and EGFR, accompanied by parallel decreases in the phosphorylation and expression of Stat3 and β-catenin
IC50 [7]: > 2 µM
inhibition of kinase activity of recombinant PKM2 [8]: suppress the kinase activity of PKM2
inhibition of kinase activity of recombinant PKM1 [9]: no appreciable inhibition
